Reference: patent US20170190705A1, “Compositions and Methods for Inhibiting BMP” (THE BRIGHAM AND WOMAN'S HOSPITAL, INC., priority 2014, published 2017)

Columns and labels:
Assay type in all cases: biochemical
YES = YES (Homo sapiens, UniProt P07947); assay: Kinome profiling YES; settings: read-out: Inhibitory activity YES; for inhibition at 0.1 µM: 100 nM
Procedure: (§1) . The kinome-wide selectivity was determined following the methods previously reported by Mohedas et al., ACS Chem Biol 2013, 8, 1291-1302 and Sanvitale et al., PLoS One 2013, 8, e62721.

SRC = SRC (Homo sapiens, UniProt P12931); assay: Kinome profiling SRC; settings: read-out: Inhibitory activity SRC; for inhibition at 0.1 µM: 100 nM
Procedure: as §1

TTK = molecular target: T1, TTK (Homo sapiens, UniProt P33981); assay: Kinome profiling TTK; settings: read-out: Inhibitory activity TTK; for inhibition at 0.1 µM: 100 nM
T1 sequence (P33981 1-857): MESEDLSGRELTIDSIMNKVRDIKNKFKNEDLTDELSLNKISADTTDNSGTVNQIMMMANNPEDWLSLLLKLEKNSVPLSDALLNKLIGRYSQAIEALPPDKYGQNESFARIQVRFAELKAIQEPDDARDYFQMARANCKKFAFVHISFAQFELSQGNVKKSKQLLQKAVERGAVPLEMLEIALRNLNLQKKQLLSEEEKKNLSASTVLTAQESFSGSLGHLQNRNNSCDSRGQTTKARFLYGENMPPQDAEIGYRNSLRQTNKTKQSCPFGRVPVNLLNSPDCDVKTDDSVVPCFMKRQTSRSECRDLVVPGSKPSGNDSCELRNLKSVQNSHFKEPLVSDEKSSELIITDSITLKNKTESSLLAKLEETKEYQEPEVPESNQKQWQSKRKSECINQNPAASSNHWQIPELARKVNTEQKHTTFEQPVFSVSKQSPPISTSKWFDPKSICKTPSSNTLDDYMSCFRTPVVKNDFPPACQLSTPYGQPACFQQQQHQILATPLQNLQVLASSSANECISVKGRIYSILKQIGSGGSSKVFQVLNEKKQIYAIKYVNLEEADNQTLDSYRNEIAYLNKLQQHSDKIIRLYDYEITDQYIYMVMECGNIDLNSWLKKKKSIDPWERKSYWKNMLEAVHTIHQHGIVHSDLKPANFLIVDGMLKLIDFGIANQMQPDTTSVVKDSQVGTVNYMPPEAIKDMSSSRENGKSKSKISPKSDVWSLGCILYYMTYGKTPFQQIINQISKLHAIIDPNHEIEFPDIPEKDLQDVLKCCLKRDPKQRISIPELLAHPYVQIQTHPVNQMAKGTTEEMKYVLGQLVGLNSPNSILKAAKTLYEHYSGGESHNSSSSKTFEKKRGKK
Procedure: as §1

FGFR1 = FGFR1 (Homo sapiens, UniProt P11362); assay: Kinome profiling FGFR1; settings: read-out: Inhibitory activity FGFR1; for inhibition at 0.1 µM: 100 nM
Procedure: as §1

MEK1 = MEK1 (Homo sapiens, UniProt Q02750); assay: Kinome profiling MEK1; settings: read-out: Inhibitory activity MEK1; for inhibition at 0.1 µM: 100 nM
Procedure: as §1

FES = FES (Homo sapiens, UniProt P07332); assay: Kinome profiling FES; settings: read-out: Inhibitory activity FES; for inhibition at 0.1 µM: 100 nM
Procedure: as §1

SGK3 = molecular target: T2, SGK3 (Homo sapiens, UniProt Q96BR1); assay: Kinome profiling SGK3; settings: read-out: Inhibitory activity SGK3; for inhibition at 0.1 µM: 100 nM
T2 sequence (Q96BR1 1-496): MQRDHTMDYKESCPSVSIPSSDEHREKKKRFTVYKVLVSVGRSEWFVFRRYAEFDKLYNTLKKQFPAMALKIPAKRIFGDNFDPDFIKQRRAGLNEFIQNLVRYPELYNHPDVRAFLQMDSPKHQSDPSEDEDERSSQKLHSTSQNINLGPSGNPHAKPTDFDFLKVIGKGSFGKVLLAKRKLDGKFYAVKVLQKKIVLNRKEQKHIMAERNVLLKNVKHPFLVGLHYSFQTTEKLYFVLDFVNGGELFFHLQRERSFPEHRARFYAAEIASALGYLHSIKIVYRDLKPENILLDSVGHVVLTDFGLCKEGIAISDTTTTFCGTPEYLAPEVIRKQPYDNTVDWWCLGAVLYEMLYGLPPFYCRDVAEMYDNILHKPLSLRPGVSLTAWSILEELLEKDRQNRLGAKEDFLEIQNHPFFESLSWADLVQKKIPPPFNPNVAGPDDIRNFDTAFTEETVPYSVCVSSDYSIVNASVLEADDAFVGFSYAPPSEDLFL
Procedure: as §1

HIPK1 = HIPK1 (Homo sapiens, UniProt Q86Z02); assay: Kinome profiling HIPK1; settings: read-out: Inhibitory activity HIPK1; for inhibition at 0.1 µM: 100 nM
Procedure: as §1

RSK4 = RSK4 (Homo sapiens, UniProt Q9UK32); assay: Kinome profiling RSK4; settings: read-out: Inhibitory activity RSK4; for inhibition at 0.1 µM: 100 nM
Procedure: as §1

HIPK4 = molecular target: T3, HIPK4 (Homo sapiens, UniProt Q8NE63); assay: Kinome profiling HIPK4; settings: read-out: Inhibitory activity HIPK4; for inhibition at 0.1 µM: 100 nM
T3 sequence (Q8NE63 1-616): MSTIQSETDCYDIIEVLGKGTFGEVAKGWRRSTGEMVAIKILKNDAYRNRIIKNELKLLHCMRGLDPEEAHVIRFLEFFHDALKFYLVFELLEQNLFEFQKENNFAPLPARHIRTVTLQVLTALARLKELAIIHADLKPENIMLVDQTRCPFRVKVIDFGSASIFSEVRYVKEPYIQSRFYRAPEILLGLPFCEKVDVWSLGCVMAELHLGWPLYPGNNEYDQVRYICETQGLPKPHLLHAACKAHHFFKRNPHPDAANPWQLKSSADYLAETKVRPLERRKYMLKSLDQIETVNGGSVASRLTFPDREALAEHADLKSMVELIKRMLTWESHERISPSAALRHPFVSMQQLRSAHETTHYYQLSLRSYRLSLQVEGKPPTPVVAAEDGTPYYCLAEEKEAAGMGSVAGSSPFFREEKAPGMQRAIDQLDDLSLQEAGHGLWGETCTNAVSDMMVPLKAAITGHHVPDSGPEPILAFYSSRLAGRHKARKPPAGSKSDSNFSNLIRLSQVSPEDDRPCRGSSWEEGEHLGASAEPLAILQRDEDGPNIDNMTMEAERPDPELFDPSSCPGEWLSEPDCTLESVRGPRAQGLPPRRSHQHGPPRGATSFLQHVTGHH
Procedure: as §1

FGFR4 = FGFR4 (Homo sapiens, UniProt P22455); assay: Kinome profiling FGFR4; settings: read-out: Inhibitory activity FGFR4; for inhibition at 0.1 µM: 100 nM
Procedure: as §1

FGFR1, sequence (P11362 22-822): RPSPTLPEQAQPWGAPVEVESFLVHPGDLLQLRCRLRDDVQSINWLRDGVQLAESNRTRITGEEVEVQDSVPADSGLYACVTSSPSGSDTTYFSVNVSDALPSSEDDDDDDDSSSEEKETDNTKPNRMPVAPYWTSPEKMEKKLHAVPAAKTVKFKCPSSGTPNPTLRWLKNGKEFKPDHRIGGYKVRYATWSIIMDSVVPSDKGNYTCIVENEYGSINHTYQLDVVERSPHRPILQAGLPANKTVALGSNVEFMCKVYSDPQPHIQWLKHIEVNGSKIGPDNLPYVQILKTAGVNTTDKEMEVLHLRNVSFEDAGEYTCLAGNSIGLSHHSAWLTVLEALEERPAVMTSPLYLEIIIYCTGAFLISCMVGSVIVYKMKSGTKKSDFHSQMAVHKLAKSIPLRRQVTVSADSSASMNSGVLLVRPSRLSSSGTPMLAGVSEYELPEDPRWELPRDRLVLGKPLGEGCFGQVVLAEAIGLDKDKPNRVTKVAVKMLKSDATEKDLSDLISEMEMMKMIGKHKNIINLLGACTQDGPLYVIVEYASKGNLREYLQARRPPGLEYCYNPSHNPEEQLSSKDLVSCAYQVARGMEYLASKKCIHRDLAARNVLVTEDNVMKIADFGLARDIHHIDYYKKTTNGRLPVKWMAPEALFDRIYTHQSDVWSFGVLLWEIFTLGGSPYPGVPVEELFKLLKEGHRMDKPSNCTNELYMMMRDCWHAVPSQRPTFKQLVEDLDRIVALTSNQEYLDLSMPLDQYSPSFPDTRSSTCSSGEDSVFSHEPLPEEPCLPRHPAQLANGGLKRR
RSK4, sequence (Q9UK32 whole entry): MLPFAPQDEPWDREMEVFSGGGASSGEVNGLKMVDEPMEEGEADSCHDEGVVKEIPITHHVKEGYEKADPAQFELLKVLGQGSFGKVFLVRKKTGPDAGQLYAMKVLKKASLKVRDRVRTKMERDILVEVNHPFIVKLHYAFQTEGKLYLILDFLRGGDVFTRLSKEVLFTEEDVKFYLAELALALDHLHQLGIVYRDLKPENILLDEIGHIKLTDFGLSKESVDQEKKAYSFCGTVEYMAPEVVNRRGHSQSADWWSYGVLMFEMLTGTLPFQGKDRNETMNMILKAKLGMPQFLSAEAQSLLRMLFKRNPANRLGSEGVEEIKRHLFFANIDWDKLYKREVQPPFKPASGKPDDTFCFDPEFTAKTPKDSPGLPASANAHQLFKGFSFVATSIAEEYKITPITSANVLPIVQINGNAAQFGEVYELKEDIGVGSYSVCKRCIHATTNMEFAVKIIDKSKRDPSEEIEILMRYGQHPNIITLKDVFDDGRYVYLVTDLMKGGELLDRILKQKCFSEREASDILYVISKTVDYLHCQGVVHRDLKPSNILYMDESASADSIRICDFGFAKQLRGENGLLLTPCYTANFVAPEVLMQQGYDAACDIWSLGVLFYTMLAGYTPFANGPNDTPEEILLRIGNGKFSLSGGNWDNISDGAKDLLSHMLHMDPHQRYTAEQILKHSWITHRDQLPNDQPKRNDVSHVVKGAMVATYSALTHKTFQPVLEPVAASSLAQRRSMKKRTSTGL
FES, sequence (P07332 whole entry): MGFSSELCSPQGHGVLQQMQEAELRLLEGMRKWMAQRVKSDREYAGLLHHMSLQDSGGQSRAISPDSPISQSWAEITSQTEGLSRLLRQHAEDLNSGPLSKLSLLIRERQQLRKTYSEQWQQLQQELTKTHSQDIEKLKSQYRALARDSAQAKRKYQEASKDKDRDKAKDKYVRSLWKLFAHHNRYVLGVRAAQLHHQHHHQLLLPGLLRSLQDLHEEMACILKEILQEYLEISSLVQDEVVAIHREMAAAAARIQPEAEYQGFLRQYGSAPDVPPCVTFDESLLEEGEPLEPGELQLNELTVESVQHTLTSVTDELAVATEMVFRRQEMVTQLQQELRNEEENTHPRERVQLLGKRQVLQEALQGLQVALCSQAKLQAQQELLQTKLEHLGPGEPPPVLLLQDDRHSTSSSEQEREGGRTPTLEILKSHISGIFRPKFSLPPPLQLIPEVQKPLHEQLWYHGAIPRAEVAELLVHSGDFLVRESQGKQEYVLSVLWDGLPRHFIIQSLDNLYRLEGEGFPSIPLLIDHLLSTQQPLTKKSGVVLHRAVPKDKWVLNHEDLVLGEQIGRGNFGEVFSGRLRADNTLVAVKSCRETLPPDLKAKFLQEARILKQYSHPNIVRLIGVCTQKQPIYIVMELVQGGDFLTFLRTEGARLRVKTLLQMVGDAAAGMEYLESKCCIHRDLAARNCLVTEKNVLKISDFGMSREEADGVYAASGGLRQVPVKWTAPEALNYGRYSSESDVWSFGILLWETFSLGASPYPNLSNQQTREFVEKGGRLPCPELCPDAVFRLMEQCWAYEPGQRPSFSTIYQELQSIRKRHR
SRC, sequence (P12931 whole entry): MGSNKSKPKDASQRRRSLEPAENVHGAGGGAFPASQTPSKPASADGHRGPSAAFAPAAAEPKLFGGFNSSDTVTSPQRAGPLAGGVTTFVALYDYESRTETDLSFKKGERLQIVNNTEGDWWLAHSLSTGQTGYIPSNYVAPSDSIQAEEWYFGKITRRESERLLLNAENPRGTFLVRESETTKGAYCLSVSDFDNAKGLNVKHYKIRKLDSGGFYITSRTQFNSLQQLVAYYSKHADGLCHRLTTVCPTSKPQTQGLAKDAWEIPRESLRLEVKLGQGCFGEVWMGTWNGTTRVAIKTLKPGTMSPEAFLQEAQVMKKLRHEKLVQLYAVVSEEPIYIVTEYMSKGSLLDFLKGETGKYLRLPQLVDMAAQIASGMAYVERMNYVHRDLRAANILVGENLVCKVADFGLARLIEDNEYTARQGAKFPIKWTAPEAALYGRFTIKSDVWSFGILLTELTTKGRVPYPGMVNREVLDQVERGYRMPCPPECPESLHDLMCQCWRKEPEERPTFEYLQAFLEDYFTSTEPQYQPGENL
FGFR4, sequence (P22455 22-802): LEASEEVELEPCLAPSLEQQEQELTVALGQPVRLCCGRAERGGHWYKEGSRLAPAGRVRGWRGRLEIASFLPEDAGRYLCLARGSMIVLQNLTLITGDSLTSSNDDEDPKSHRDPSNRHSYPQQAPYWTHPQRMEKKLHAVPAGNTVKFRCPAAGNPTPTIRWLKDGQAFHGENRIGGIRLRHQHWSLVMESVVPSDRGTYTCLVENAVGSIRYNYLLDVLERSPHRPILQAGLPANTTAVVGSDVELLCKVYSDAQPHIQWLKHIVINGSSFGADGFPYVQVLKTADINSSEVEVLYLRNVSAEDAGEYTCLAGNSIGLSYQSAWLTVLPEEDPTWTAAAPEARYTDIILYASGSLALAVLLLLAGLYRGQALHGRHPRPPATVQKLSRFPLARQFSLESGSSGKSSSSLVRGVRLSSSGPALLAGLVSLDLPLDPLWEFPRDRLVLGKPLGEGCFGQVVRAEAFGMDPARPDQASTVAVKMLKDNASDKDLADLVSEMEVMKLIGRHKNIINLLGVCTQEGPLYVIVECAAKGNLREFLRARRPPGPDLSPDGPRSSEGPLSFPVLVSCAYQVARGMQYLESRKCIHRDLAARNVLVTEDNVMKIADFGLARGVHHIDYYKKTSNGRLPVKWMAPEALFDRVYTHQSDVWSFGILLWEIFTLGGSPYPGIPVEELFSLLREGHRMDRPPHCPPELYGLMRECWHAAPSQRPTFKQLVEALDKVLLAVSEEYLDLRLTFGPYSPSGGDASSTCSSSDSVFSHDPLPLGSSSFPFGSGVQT
HIPK1, sequence (Q86Z02 whole entry): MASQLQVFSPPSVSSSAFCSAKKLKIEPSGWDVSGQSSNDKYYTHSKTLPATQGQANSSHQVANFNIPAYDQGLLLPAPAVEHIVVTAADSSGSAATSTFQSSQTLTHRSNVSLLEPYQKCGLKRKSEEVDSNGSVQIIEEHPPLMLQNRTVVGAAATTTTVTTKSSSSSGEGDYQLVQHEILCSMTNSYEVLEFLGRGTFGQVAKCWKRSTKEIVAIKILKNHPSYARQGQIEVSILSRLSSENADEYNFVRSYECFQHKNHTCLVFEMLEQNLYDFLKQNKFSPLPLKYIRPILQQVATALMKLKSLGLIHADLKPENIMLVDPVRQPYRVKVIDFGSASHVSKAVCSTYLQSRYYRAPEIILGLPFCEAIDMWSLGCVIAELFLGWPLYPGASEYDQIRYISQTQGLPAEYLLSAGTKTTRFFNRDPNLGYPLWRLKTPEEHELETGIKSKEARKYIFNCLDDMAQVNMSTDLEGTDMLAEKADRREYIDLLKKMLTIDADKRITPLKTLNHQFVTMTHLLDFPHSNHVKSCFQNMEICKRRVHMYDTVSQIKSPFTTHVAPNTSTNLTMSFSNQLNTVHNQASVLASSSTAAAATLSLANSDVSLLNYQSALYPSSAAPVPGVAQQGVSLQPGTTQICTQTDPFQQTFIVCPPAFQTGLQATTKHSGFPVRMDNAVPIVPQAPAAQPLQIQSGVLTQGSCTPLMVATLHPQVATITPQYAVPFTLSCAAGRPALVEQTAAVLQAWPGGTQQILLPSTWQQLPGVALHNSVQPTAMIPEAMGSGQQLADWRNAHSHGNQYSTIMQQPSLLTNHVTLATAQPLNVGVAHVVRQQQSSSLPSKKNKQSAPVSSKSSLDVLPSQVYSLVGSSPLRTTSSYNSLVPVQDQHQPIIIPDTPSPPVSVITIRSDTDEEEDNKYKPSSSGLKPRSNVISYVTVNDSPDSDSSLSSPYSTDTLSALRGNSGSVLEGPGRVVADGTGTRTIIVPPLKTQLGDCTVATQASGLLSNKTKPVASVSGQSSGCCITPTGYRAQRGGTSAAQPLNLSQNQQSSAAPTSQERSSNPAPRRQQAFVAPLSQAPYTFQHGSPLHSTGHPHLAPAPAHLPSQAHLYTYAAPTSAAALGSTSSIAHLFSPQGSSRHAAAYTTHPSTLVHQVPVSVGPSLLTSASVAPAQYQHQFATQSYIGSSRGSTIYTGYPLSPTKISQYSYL

| Structure (SMILES) | inhibition at 0.1 µM (YES) [%] | inhibition at 1 µM (YES) [%] | inhibition at 0.1 µM (SRC) [%] | inhibition at 1 µM (SRC) [%] | inhibition at 0.1 µM (TTK) [%] | inhibition at 1 µM (TTK) [%] | inhibition at 0.1 µM (FGFR1) [%] | inhibition at 1 µM (FGFR1) [%] | inhibition at 0.1 µM (MEK1) [%] | inhibition at 1 µM (MEK1) [%] | inhibition at 0.1 µM (FES) [%] | inhibition at 1 µM (FES) [%] | inhibition at 0.1 µM (SGK3) [%] | inhibition at 1 µM (SGK3) [%] | inhibition at 0.1 µM (HIPK1) [%] | inhibition at 1 µM (HIPK1) [%] | inhibition at 0.1 µM (RSK4) [%] | inhibition at 1 µM (RSK4) [%] | inhibition at 0.1 µM (HIPK4) [%] | inhibition at 1 µM (HIPK4) [%] | other results |
| --- | --- | --- | --- | --- | --- | --- | --- | --- | --- | --- | --- | --- | --- | --- | --- | --- | --- | --- | --- | --- | --- |
| COc1cc(-c2cc(-c3ccc(N4CCNCC4)cc3)cnc2N)cc(OC)c1OC [Compound 15, 5-(4-(piperazin-1-yl)phenyl)-3-(3,4,5-trimethoxyphenyl)pyridin-2-amine] | 41 | 82 | 40 | 81 | 13 | 18 | 3 | 8 | 3 | 6 | 3 | 4 | -8 | 3 | 1 | 2 | 1 | 2 | 1 | 2 | inhibition at 0.1 µM (FGFR4): 1%; inhibition at 1 µM (FGFR4): 0% |
| COc1cc(-c2cc(-c3ccc(N4CCNCC4)cc3)cnc2C)cc(OC)c1OC [Compound 10, 1-(4-(6-methyl-5-(3,4,5-trimethoxyphenyl)pyridin-3-yl)phenyl)piperazine] | 11 | 47 | 8 | 23 | 3 | 4 | 5 | 5 | 0 | 2 | 7 | 9 | 3 | 11 | 1 | 1 | 1 | 1 | 5 | 8 | inhibition at 0.1 µM (FGFR4): 1%; inhibition at 1 µM (FGFR4): 2% |
